Results reported in PubChem BioAssay AID1963850 (Molecular Pharmacology Branch, DTP, NCI, 2024).

Tested on: 192522-019-R-J2-PDC complex tumor spheroid viability
Experiment: Anticancer human tumor 192522-019-R-J2-PDC patient-derived colon adenocarcinoma cell line growth inhibition [POLQ]
Settings: for IC50: curve of first compound; for viability, T/C: stronger effect = lower value
In short: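 Three-cell-type spheroids modelling solid tumor plus stroma served as the readout system; POL inhibitors were tested individually and in combination, concentration ranges set by clinical Cmax where known.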

[1] = second compound 0.0316 µM, first compound 0.0316 µM
[2] = second compound 0.0316 µM, first compound 0.1 µM
[3] = second compound 0.0316 µM, first compound 0.316 µM
[4] = second compound 0.0316 µM, first compound 1 µM
[5] = second compound 0.0316 µM, first compound 3.16 µM
[6] = second compound 0.0316 µM, first compound 10 µM
[7] = second compound 0.1 µM, first compound 0.0316 µM
[8] = second compound 0.1 µM, first compound 0.1 µM
[9] = second compound 0.1 µM, first compound 0.316 µM
[10] = second compound 0.1 µM, first compound 1 µM
[11] = second compound 0.1 µM, first compound 3.16 µM
[12] = second compound 0.1 µM, first compound 10 µM
[13] = second compound 0.316 µM, first compound 0.0316 µM
[14] = second compound 0.316 µM, first compound 0.1 µM
[15] = second compound 0.316 µM, first compound 0.316 µM
[16] = second compound 0.316 µM, first compound 1 µM
[17] = second compound 0.316 µM, first compound 3.16 µM
[18] = second compound 0.316 µM, first compound 10 µM
[19] = second compound 1 µM, first compound 0.0316 µM
[20] = second compound 1 µM, first compound 0.1 µM
[21] = second compound 1 µM, first compound 0.316 µM
[22] = second compound 1 µM, first compound 1 µM
[23] = second compound 1 µM, first compound 3.16 µM
[24] = second compound 1 µM, first compound 10 µM
[25] = second compound 3.16 µM, first compound 0.0316 µM
[26] = second compound 3.16 µM, first compound 0.1 µM
[27] = second compound 3.16 µM, first compound 0.316 µM
[28] = second compound 3.16 µM, first compound 1 µM
[29] = second compound 3.16 µM, first compound 3.16 µM
[30] = second compound 3.16 µM, first compound 10 µM
[31] = second compound 10 µM, first compound 0.0316 µM
[32] = second compound 10 µM, first compound 0.1 µM
[33] = second compound 10 µM, first compound 0.316 µM
[34] = second compound 10 µM, first compound 1 µM
[35] = second compound 10 µM, first compound 3.16 µM
[36] = second compound 10 µM, first compound 10 µM
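Also: spheroids exposed to drugs for seven days before reading.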
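For viability, T/C in this document: 100% = DMSO vehicle control viability in luminescence.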

## CC(C)n1c(=O)n(C)c2cnc3cc(F)c(-c4ccc(OCCCN5CCCCC5)nc4)cc3c21 + Cc1cccc(N(C)C(=O)C2C(O)CCN2c2nc(C)cc(C(F)(F)F)c2C#N)c1
Second compound 0.0316 µM
  IC50: > 10000 nM
Second compound 0.1 µM
  IC50: > 10000 nM
Second compound 0.316 µM
  IC50: > 10000 nM
Second compound 1 µM
  IC50: > 10000 nM
Second compound 3.16 µM
  IC50: > 10000 nM
Second compound 10 µM
  IC50: > 10000 nM
[1]
  viability, T/C: 113%
[2]
  viability, T/C: 87%
[3]
  viability, T/C: 102%
[4]
  viability, T/C: 103%
[5]
  viability, T/C: 116%
[6]
  viability, T/C: 99.3%
[7]
  viability, T/C: 104%
[8]
  viability, T/C: 99%
[9]
  viability, T/C: 107%
[10]
  viability, T/C: 107%
[11]
  viability, T/C: 99.8%
[12]
  viability, T/C: 99.5%
[13]
  viability, T/C: 94%
[14]
  viability, T/C: 98.4%
[15]
  viability, T/C: 108%
[16]
  viability, T/C: 105%
[17]
  viability, T/C: 127%
[18]
  viability, T/C: 104%
[19]
  viability, T/C: 98.9%
[20]
  viability, T/C: 110%
[21]
  viability, T/C: 106%
[22]
  viability, T/C: 123%
[23]
  viability, T/C: 116%
[24]
  viability, T/C: 105%
[25]
  viability, T/C: 92%
[26]
  viability, T/C: 103%
[27]
  viability, T/C: 114%
[28]
  viability, T/C: 118%
[29]
  viability, T/C: 134%
[30]
  viability, T/C: 105%
[31]
  viability, T/C: 105%
[32]
  viability, T/C: 94.1%
[33]
  viability, T/C: 117%
[34]
  viability, T/C: 114%
[35]
  viability, T/C: 120%
[36]
  viability, T/C: 110%

## CC1COCCN1c1cc(C2(O)CC3CCC(C2)O3)c2cnn(-c3ccn[nH]3)c2n1 (centres undefined) + Cc1cccc(N(C)C(=O)C2C(O)CCN2c2nc(C)cc(C(F)(F)F)c2C#N)c1
Second compound 0.0316 µM
  IC50: 252 nM
Second compound 0.1 µM
  IC50: 256 nM
Second compound 0.316 µM
  IC50: 298 nM
Second compound 1 µM
  IC50: 467 nM
Second compound 3.16 µM
  IC50: 548 nM
Second compound 10 µM
  IC50: 291 nM
[1]
  viability, T/C: 117%
[2]
  viability, T/C: 70.1%
[3]
  viability, T/C: 47.8%
[4]
  viability, T/C: 29.2%
[5]
  viability, T/C: 43.7%
[6]
  viability, T/C: 46.3%
[7]
  viability, T/C: 95.8%
[8]
  viability, T/C: 73.1%
[9]
  viability, T/C: 42%
[10]
  viability, T/C: 35.9%
[11]
  viability, T/C: 37.3%
[12]
  viability, T/C: 64.2%
[13]
  viability, T/C: 101%
[14]
  viability, T/C: 82.9%
[15]
  viability, T/C: 49.2%
[16]
  viability, T/C: 33.8%
[17]
  viability, T/C: 43.5%
[18]
  viability, T/C: 52.3%
[19]
  viability, T/C: 94.1%
[20]
  viability, T/C: 85.5%
[21]
  viability, T/C: 54.8%
[22]
  viability, T/C: 34.5%
[23]
  viability, T/C: 38.6%
[24]
  viability, T/C: 54.3%
[25]
  viability, T/C: 98.3%
[26]
  viability, T/C: 89.3%
[27]
  viability, T/C: 55.1%
[28]
  viability, T/C: 32.1%
[29]
  viability, T/C: 46.8%
[30]
  viability, T/C: 56.8%
[31]
  viability, T/C: 102%
[32]
  viability, T/C: 78.1%
[33]
  viability, T/C: 48.8%
[34]
  viability, T/C: 32.8%
[35]
  viability, T/C: 51.7%
[36]
  viability, T/C: 50%
